The text below walks through data of paper PMC7070407, “Moringin, A Stable Isothiocyanate from Moringa oleifera, Activates the Somatosensory and Pain Receptor TRPA1 Channel In Vitro” (Molecules, 2020).

Broadly, the IC50 is the point on the concentration scale where inhibition reaches its midpoint. Higher therefore signals lower potency. As usually defined, the EC50 is the midpoint of the concentration-response curve. A higher EC50 goes with lower potency in that assay.

One test concerns the target T1, rat TRPM8 (Rattus norvegicus, UniProt Q8R455).
T1 construct: expressed in transfected cells; host or cells: HEK-293
Nature of the test: Elevation of intracellular Ca2+ (Fluo-4) in HEK-293 cells stably transfected with rat TRPM8. Format: cell-based. As for the experimental part:
(§1) Assay of rat TRPA1, TRPV2, TRPV3, TRPV4, TRPM8 or human TRPV1 mediated elevation of intracellular Ca^2+ in transfected HEK-293 cells are been performed as described. Briefly, human embryonic kidney (HEK-293) cells, stably transfected with rat TRPA1, TRPV2, TRPV3, TRPV4, TRPM8 or human TRPV1 (selected by Geneticin 600 μg mL^−1) or not transfected, were cultured in EMEM + 2 mM Glutamine + 1% Non-Essential Amino Acids (NEAA) + 10% FBS and maintained at 37 °C with 5% CO2. Stable transfections were checked by quantitative real-time polymerase chain reaction (PCR), quantitative real-time PCR was performed by an iCycler-iQ (Bio-Rad, Hercules, CA, USA) in a 20 μL reaction mixture containing the following: 10 μL iQ SYBR Green Supermix 2X (Bio-Rad), 20 ng of cDNA (calculated on the basis of the retro-transcribed RNA), and 330 nM for each primer. […] The day of the experiment the cells were loaded with Fluo-4 AM (4 μM in DMSO containing 0.02% Pluronic F-127) for 1 h in the dark at room temperature, rinsed and resuspended in Tyrode’s solution (145 mM NaCl, 2.5 mM KCl, 1.5 mM CaCl2, 1.2 mM MgCl2, 10 mM D-glucose, and 10 mM HEPES, pH 7.4), finally transferred to a quartz cuvette of a spectrofluorimeter (Perkin-Elmer LS50B; λEX = 488 nm, λEM = 516 nm) equipped with PTP-1 Fluorescence Peltier System (PerkinElmer Life and Analytical Sciences, Waltham, MA, USA) under continuous stirring. […]

The target in the next test is T2, rat TRPV2 (Rattus norvegicus, UniProt Q9WUD2).
T2 construct: expressed in transfected cells; host or cells: HEK-293
T2 sequence (Q9WUD2 1-761): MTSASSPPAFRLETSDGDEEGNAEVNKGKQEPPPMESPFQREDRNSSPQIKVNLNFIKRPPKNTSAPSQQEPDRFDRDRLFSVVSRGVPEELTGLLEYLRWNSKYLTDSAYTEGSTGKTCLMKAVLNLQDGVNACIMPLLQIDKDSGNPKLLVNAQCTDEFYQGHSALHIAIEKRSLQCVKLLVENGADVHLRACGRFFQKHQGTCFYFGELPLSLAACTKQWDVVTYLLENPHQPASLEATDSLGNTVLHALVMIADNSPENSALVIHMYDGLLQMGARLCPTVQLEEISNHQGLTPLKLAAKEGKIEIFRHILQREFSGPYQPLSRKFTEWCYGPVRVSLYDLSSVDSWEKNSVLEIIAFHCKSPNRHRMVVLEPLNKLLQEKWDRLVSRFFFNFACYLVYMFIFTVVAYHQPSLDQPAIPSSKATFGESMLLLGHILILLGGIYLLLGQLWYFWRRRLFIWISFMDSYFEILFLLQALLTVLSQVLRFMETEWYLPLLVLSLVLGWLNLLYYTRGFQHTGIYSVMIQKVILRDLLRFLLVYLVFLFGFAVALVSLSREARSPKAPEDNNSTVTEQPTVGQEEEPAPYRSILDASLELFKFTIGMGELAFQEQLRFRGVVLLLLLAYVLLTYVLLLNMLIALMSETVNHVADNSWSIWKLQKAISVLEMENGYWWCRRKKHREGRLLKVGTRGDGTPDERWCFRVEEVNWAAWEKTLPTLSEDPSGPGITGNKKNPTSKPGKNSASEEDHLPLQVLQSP
As to the kind of experiment: Elevation of intracellular Ca2+ (Fluo-4) in HEK-293 cells stably transfected with rat TRPV2. Format: cell-based. As for the experimental part: as §1

The test system of test [1] is Amyotrophic Lateral Sclerosis (ALS) transgenic model. Set-up: method as in PMID 26075221. To be noted: cited from earlier work.
The next test deals with T3, rat TRPV4 (Rattus norvegicus, UniProt Q9ERZ8).
T3 construct: expressed in transfected cells; host or cells: HEK-293
T3 sequence (Q9ERZ8 whole entry): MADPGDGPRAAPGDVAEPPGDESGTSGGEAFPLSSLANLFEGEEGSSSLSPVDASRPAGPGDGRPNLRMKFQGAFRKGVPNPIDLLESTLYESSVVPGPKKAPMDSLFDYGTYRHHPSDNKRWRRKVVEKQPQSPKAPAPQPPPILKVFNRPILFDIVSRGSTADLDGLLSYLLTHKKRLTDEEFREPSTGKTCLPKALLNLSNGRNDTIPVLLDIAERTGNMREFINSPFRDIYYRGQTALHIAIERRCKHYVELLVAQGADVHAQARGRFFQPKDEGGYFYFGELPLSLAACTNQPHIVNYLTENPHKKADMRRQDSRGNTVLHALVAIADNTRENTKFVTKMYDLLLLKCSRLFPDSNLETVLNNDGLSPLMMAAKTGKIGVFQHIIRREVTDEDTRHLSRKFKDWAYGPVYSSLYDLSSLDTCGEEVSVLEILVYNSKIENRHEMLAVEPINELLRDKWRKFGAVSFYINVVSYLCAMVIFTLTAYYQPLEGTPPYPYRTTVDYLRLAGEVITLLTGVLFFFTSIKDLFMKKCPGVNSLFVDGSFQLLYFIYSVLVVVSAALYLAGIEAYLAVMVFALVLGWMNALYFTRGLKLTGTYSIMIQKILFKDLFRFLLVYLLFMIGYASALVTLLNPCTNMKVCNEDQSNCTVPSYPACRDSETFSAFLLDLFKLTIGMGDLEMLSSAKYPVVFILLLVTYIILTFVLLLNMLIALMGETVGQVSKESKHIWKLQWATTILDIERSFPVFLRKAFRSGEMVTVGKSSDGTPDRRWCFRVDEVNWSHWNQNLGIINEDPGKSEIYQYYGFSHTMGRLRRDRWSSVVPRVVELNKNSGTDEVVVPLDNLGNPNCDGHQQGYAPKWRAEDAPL
As to the kind of experiment: Elevation of intracellular Ca2+ (Fluo-4) in HEK-293 cells stably transfected with rat TRPV4. The class given is cell-based. Here is the method:
as §1

For another test, the target named is T4, human TRPV1 (Homo sapiens, UniProt Q8NER1).
T4 construct: expressed in transfected cells; host or cells: HEK-293
T4 sequence (Q8NER1 whole entry): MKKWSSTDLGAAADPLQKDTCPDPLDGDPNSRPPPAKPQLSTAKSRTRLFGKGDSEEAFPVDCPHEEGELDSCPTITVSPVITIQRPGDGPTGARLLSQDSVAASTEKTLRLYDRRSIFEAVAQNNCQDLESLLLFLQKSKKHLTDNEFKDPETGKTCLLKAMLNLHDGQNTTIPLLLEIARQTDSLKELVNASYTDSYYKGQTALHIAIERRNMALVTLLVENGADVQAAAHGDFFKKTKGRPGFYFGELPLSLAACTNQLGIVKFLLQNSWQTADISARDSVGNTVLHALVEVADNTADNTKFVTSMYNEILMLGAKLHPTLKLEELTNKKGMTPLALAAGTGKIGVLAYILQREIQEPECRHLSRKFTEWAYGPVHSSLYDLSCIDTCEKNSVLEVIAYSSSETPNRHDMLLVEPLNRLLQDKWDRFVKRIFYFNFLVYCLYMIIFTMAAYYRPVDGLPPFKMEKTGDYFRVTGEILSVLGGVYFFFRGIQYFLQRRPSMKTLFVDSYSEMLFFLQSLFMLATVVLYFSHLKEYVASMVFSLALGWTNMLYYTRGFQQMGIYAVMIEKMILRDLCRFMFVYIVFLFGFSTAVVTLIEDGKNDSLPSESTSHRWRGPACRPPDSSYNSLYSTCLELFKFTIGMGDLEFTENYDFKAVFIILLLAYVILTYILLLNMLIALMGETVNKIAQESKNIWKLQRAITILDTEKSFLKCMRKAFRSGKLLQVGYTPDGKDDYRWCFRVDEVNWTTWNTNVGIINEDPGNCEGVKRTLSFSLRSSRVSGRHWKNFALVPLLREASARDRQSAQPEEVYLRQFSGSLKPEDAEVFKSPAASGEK
As to the kind of experiment: Elevation of intracellular Ca2+ (Fluo-4) in HEK-293 cells stably transfected with human TRPV1. Format: cell-based. Here is the method: Assay of rat TRPA1, TRPV2, TRPV3, TRPV4, TRPM8 or human TRPV1 mediated elevation of intracellular Ca^2+ in transfected HEK-293 cells are been performed as described. Briefly, human embryonic kidney (HEK-293) cells, stably transfected with rat TRPA1, TRPV2, TRPV3, TRPV4, TRPM8 or human TRPV1 (selected by Geneticin 600 μg mL^−1) or not transfected, were cultured in EMEM + 2 mM Glutamine + 1% Non-Essential Amino Acids (NEAA) + 10% FBS and maintained at 37 °C with 5% CO2. Stable transfections were checked by quantitative real-time polymerase chain reaction (PCR), quantitative real-time PCR was performed by an iCycler-iQ (Bio-Rad, Hercules, CA, USA) in a 20 μL reaction mixture containing the following: 10 μL iQ SYBR Green Supermix 2X (Bio-Rad), 20 ng of cDNA (calculated on the basis of the retro-transcribed RNA), and 330 nM for each primer. Optimized primers for SYBR Green analysis (and relative TaOpt) and optimum annealing temperatures were designed by Allele-Id software version 7.0 (Biosoft International, Palo Alto, CA, USA) and were synthesized (HPLC-purification grade) by MWG-Biotech AG (Ebersberg, Germany). Assays were performed in quadruplicate (maximal ΔCt of replicate samples, <0.5). Relative expression analysis, correct for PCR efficiency and normalized with respect to reference genes β-actin and glyceraldehyde 3-phosphate dehydrogenase, was performed by GENEX software (Bio-Rad). […] The day of the experiment the cells were loaded with Fluo-4 AM (4 μM in DMSO containing 0.02% Pluronic F-127) for 1 h in the dark at room temperature, rinsed and resuspended in Tyrode’s solution (145 mM NaCl, 2.5 mM KCl, 1.5 mM CaCl2, 1.2 mM MgCl2, 10 mM D-glucose, and 10 mM HEPES, pH 7.4), finally transferred to a quartz cuvette of a spectrofluorimeter (Perkin-Elmer LS50B; λEX = 488 nm, λEM = 516 nm) equipped with PTP-1 Fluorescence Peltier System (PerkinElmer Life and Analytical Sciences, Waltham, MA, USA) under continuous stirring. Cell fluorescence before and after the addition of various concentrations of test compounds and extracts were measured normalizing the effects against the response to ionomycin (4 µM). The values of the effect on [Ca^2+]i in HEK-293 cells not transfected are used as baseline and subtracted from the values obtained from transfected cells. […] The potency of the compounds (EC50 values) are determined as the concentration required to produce half-maximal increases in [Ca^2+]i. In TRPV3 assay TRPV3-expressing HEK293 cells were first sensitized with the structurally unrelated agonist 2-aminoethoxydiphenyl borate (100 μM). Antagonist/desensitizing behaviour is evaluated against the agonist of the TRP analyzed by adding the compounds directly in the quartz cuvette 5 min before stimulation of cells with the agonist. […]

T1 sequence (Q8R455 whole entry): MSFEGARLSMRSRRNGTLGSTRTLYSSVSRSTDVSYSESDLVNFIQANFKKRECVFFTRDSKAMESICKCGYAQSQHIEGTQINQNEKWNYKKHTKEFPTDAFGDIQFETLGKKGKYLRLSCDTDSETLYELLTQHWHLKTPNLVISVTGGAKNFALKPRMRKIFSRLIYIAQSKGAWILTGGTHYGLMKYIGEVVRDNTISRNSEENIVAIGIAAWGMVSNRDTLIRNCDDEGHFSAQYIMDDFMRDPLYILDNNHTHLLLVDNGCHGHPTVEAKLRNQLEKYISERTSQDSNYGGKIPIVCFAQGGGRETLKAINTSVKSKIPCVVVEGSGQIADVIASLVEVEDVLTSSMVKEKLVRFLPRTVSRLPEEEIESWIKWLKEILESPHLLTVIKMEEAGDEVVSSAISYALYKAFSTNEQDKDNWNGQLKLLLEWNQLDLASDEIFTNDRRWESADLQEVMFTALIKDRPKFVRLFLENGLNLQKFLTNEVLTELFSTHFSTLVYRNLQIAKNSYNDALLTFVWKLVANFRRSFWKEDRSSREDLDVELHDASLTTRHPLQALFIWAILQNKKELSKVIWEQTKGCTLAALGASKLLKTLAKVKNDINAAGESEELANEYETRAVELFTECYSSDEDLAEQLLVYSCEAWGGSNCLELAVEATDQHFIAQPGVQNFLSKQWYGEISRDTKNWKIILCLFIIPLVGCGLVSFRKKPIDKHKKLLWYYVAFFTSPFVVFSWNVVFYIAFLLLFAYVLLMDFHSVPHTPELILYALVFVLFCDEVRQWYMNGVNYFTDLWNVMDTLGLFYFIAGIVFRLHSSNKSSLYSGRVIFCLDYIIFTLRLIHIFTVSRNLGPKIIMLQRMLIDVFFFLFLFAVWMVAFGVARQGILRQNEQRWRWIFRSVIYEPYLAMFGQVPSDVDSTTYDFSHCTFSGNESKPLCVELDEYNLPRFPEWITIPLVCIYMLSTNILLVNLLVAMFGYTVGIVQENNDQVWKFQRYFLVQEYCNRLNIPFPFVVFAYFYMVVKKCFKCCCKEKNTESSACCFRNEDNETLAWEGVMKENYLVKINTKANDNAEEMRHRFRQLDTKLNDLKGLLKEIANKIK

For the compound `C[C@@H]1O[C@@H](Oc2ccc(CN=C=S)cc2)[C@H](O)[C@H](O)[C@H]1O` [Moringin, 4-[(α-L-rhamnosyloxy)benzyl]isothiocyanate], the IC50 is greater than 100 µM against rat TRPM8, greater than 100 µM on rat TRPV2, greater than 100 µM at rat TRPV4 and greater than 50 µM at human TRPV1. Also, the “Delay of the disease onset” value in test [1] is “about two weeks”. The compound also registered an EC50 at human TRPV1 of 20.4 ± 1.3 µM. For the same compound, the “Efficacy (% Ionomycin 4 µM)” value on human TRPV1 (TRPV1) turned out to be 46.8 ± 0.7%.
